For test [1], the system named is Brassica campestris ssp. Chinensis Makino. Description: Effects of different concentrations of 6-BA sprayed onto flower buds on the embryogenesis rate. The test is classed as in vivo. The following applies: for embryogenesis rate increased by: compared with no 6-BA. How it is done: In this example, a method for improving a one-time seedling rate of microspore embryoids of Brassica campestris ssp. Chinensis Makino included the steps of: • (1) pretreatment of flower bud • a concentration of 100 mg/L of 6-BA was sprayed onto a flower bud of a plant of Brassica campestris ssp. Chinensis Makino at a full-bloom stage after squaring; on the second day after the spraying of 6-BA, an inflorescence, which was specifically a main inflorescence or a healthy inflorescence of a primary branch of a plant without insect pests and cracked buds, was selected, placed in a self-sealing bag and sprayed with clean water, and then stored in a refrigerator at 4° C. for 1 day for later use; • (2) isolation of microspores • a flower bud with a petal length/anther length between 0.5-1 was selected, firstly sterilized with 70% alcohol for 30 s, then sterilized with 0.1% HgCl2 under shaking for 6 min, and then rinsed with sterilized water for 2 times, with each time for 5 min; then, the flower bud was crushed in a B5 medium with a glass rod to release microspores, and the microspores were filtered by a 300-mesh steel-wire mesh screen and a cell mesh screen successively; subsequently, a filtrate was collected into a centrifugal tube and centrifuged under the condition of 1,000 r/min for 3 min; and after the centrifuging, a pellet was resuspended with a B5 medium, and the resuspended solution was centrifuged again under the condition of 1,000 r/min for 3 min to obtain a pellet as the purified microspores desired for the objective; • (3) culture of microspores • the purified microspores were diluted with a NLN medium, and a cell density was adjusted to about 1.5 × 10^5 /mL^-1 (at this time, the medium was pale yellow); subsequently, the diluted purified microspores were subpackaged into culture dishes, and added with phytic acid PA at a concentration of 0.15%; and finally, the microspores were subjected to heat shock treatment at 33° C. for 24 h, then transferred to culture in the dark at 25° C., and placed onto a shaker for shaking culture after embryoids visible to naked eyes appeared; and • (4) germination and seedling of embryoids • the cultured embryoids in a cotyledon stage with a length of 2.8 mm were transferred onto a MS medium for differentiation culture, wherein culture conditions were 4° C., 14 h of illumination by blue-red compound light/day, and 14 days of culture; and then, the culture was continued under a condition of 25° C. and 14 h of illumination by blue-red compound light/day until seedling; wherein the ratio of blue light to red light in the blue-red compound light was 1:1. This example was used for verifying the effects of different concentrations of 6-BA on the embryogenesis rate of Brassica campestris ssp. Chinensis Makino: Method: in the pretreatment process of the flower buds, after squaring of Brassica campestris ssp. Chinensis Makino, at the full flowering stage, 6-BA solutions with concentrations of 0, 50, 100, 150 and 200 mg/L were prepared and sprayed onto the flower buds respectively, so as to study the effects of different concentrations of 6-BA on the embryogenesis rate of Brassica campestris ssp. Chinensis Makino (other steps were the same, and were conducted with reference to Example 3).

For test [2], the system named is purified microspores of Brassica campestris ssp. Chinensis Makino. Put plainly: Effects of different concentrations of phytic acid PA added in microspore culture on the embryogenesis rate. It is filed as cell-based. On the procedure:
In this example, a method for improving a one-time seedling rate of microspore embryoids of Brassica campestris ssp. Chinensis Makino included the steps of: • (1) pretreatment of flower bud • a concentration of 100 mg/L of 6-BA was sprayed onto a flower bud of a plant of Brassica campestris ssp. Chinensis Makino at a full-bloom stage after squaring; on the second day after the spraying of 6-BA, an inflorescence, which was specifically a main inflorescence or a healthy inflorescence of a primary branch of a plant without insect pests and cracked buds, was selected, placed in a self-sealing bag and sprayed with clean water, and then stored in a refrigerator at 4° C. for 1 day for later use; • (2) isolation of microspores • a flower bud with a petal length/anther length between 0.5-1 was selected, firstly sterilized with 70% alcohol for 30 s, then sterilized with 0.1% HgCl2 under shaking for 6 min, and then rinsed with sterilized water for 2 times, with each time for 5 min; then, the flower bud was crushed in a B5 medium with a glass rod to release microspores, and the microspores were filtered by a 300-mesh steel-wire mesh screen and a cell mesh screen successively; subsequently, a filtrate was collected into a centrifugal tube and centrifuged under the condition of 1,000 r/min for 3 min; and after the centrifuging, a pellet was resuspended with a B5 medium, and the resuspended solution was centrifuged again under the condition of 1,000 r/min for 3 min to obtain a pellet as the purified microspores desired for the objective; • (3) culture of microspores • the purified microspores were diluted with a NLN medium, and a cell density was adjusted to about 1.5 × 10^5 /mL^-1 (at this time, the medium was pale yellow); subsequently, the diluted purified microspores were subpackaged into culture dishes, and added with phytic acid PA at a concentration of 0.15%; and finally, the microspores were subjected to heat shock treatment at 33° C. for 24 h, then transferred to culture in the dark at 25° C., and placed onto a shaker for shaking culture after embryoids visible to naked eyes appeared; and • (4) germination and seedling of embryoids • the cultured embryoids in a cotyledon stage with a length of 2.8 mm were transferred onto a MS medium for differentiation culture, wherein culture conditions were 4° C., 14 h of illumination by blue-red compound light/day, and 14 days of culture; and then, the culture was continued under a condition of 25° C. and 14 h of illumination by blue-red compound light/day until seedling; wherein the ratio of blue light to red light in the blue-red compound light was 1:1. This example was used for verifying the effects of different concentrations of phytic acid PA on the embryogenesis rate of Brassica campestris ssp. Chinensis Makino: Method: in the process of microspore culture, the purified microspores subjected to density dilution were subpackaged into culture dishes, and added with phytic acid PA at concentrations of 0, 0.01%, 0.1%, 0.15%, 0.5% and 1% respectively, so as to study the effects of different concentrations of phytic acid PA on the embryogenesis rate of Brassica campestris ssp. Chinensis Makino (other steps were the same, and conducted with reference to Example 3).

As to `c1ccc(CNc2ncnc3[nH]cnc23)cc1` [6-BA], the Average embryogenesis rate in test [1] (6-BA 50 mg/L sprayed onto flower buds) was 0.92 embryo/bud; in test [1] (6-BA 100 mg/L sprayed onto flower buds) it was 1.56 embryo/bud; in test [1] (6-BA 150 mg/L sprayed onto flower buds), 1.08 embryo/bud; in test [1] (6-BA 200 mg/L sprayed onto flower buds), 0.74 embryo/bud. In addition, the “embryogenesis rate increased by” value in test [1] (6-BA 50 mg/L) was 38.46%; in test [1] (6-BA 100 mg/L), 100%; in test [1] (6-BA 150 mg/L) it was 17.95%. The “embryogenesis rate decreased by” value in test [1] (6-BA 200 mg/L, compared with that without application of the 6-BA solution) turned out to be 5.13%.
Consider `O=P(O)(O)O[C@H]1[C@H](OP(=O)(O)O)[C@@H](OP(=O)(O)O)[C@H](OP(=O)(O)O)[C@@H](OP(=O)(O)O)[C@H]1OP(=O)(O)O` [PA, Phytic acid], for which the Average embryogenesis rate is on record as 0.774 embryo/bud in test [2] (PA 0.01% in medium); 1.495 embryo/bud in test [2] (PA 0.1% in medium); 1.137 embryo/bud in test [2] (PA 0.15% in medium); 0.789 embryo/bud in test [2] (PA 0.5% in medium); 0.487 embryo/bud in test [2] (PA 1% in medium). The “embryogenesis rate increased by” value in test [2] (PA 0.01%, compared with the medium without addition of PA) was 21%; in test [2] (PA 0.1%, compared with the medium without addition of PA) it was 134%; in test [2] (PA 0.15%, compared with the medium without addition of PA), 78%; in test [2] (PA 0.5%, compared with the medium without addition of PA), 23%. Also, in test [2] (PA 1%, compared with the medium without addition of PA), the “embryogenesis rate decreased by” value amounted to 24%.

The values are drawn from US11716944B1, “Method for improving one-time seedling rate of microspore embryoids of brassica campestris SSP. chinensis makino” (Anhui Agricultural University, priority 2021, dated 2023).
